Measured values as given in patent US10138253B2, “Imidazopyridine macrocycles as inhibitors of human immunodeficiency virus replication” (priority 2015, dated 2018).
Read-outs that look alike come from different tables or passages of the source.

Key:
[1] = ether bond, 20-membered ring, PPh3/DIAD, THF
[2] = ether bond, PPh3/DIAD, THF
NL-RLuc virus = assay: Inhibition of HIV replication (NL-RLuc virus, luciferase readout, MT-2 cells); format: cell-based; details: Human immunodeficiency virus 1, MT2, 120 h
From the text: Inhibition of HIV Replication:
A recombinant NL-RLuc proviral clone was constructed in which a section of the nef gene from NL4-3 was replaced with the Renilla Luciferase gene. This virus is fully infectious and can undergo multiple cycles of replication in cell culture. In addition, the luciferous reporter provides a simple and easy method for quantitating the extent of virus growth and consequently, the antiviral activity of test compounds. The plasmid pNLRLuc contains the proviral NL-Rluc DNA cloned into pUC18 at the PvuII site. The NL-RLuc virus was prepared by transfection of 293T cells with the plasmid pNLRLuc. Transfections were performed using the LipofectAMINE PLUS kit from Invitrogen (Carlsbad, Calif.) according to the manufacturer and the virus generated was titered in MT-2 cells. For susceptibility analyses, the titrated virus was used to infect MT-2 cells in the presence of compound, and after 5 days of incubation, cells were processed and quantitated for virus growth by the amount of expressed luciferase. Assay media was RPMI 1640 supplemented with 10% heat inactivated fetal bovine serum (FBS), 100 units/ml penicillin G/100 units/ml streptomycin, 10 mM HEPES buffer pH 7.55 and 2 mM L-glutamine. The results from at least 2 experiments were used to calculate the EC50 values. Luciferase was quantitated using the Dual Luciferase kit from Promega (Madison, Wis.). Susceptibility of viruses to compounds was determined by incubation in the presence of serial dilutions of the compound. The 50% effective concentration (EC50) was calculated by using the exponential form of the median effect equation where (Fa)=1/[1+(ED50/drug conc.)^m] (Johnson V A, Byington R T. Infectivity Assay. In Techniques in HIV Research. ed. Aldovini A, Walker B D. 71-76. New York: Stockton Press. 1990). Activity equal to A refers to a compound having an EC50≤100 nM, while B and C denote compounds having an EC50 between 100 nM and luM (B) or >1 uM (C).

[3] = from COC(=O)[C@@H](OC(C)(C)C)c1c(C)c(C)c2nc(-c3cccc(-c4cc(F)c(F)cc4O)c3)c(C)n2c1N1CCC(C)(OCCOC[C@@H](C)O)CC1, 2.77 mM, 1.0 h, 2 steps
[4] = from COC(=O)[C@@H](OC(C)(C)C)c1c(C)c(C)c2nc(-c3cccc(-c4c(O)cc(C)cc4F)c3)cn2c1N1CCC(C)(OCCOC[C@@H](C)O)CC1, 6.7 mM, 1.0 h, 2 steps
[5] = from COC(=O)[C@@H](OC(C)(C)C)c1c(C)c(C)c2nc(-c3cccc(-c4ccc(C)cc4O)c3)cn2c1N1CCC(C)(OCCOC[C@@H](C)O)CC1, 20.0 mM, 0.5 h
[6] = from COC(=O)[C@@H](OC(C)(C)C)c1c(C)c(C)c2nc(-c3cccc(-c4cc(C)ccc4O)c3)cn2c1N1CCC(C)(OCCOC[C@@H](C)O)CC1, 3.49 mM, 25.0 °C, 16.0 h
[7] = from COC(=O)[C@@H](OC(C)(C)C)c1c(C)c(C)c2nc(-c3cccc(-c4cc(F)ccc4O)c3)cn2c1N1CCC(C)(OCCOC[C@@H](C)O)CC1, 47.0 mM, 18.0 h
[8] = from COC(=O)[C@@H](OC(C)(C)C)c1c(C)cc2nc(-c3cccc(-c4c(O)cc(C)cc4F)c3)cn2c1N1CCC(C)(OCCOC[C@@H](C)O)CC1, 42.7 mM, 0.5 h, 2 steps
[9] = from COC(=O)[C@@H](OC(C)(C)C)c1c(C)cc2nc(-c3cccc(-c4cc(C)ccc4O)c3)cn2c1N1CCC(C)(OCCOC[C@@H](C)O)CC1, 39.2 mM, 18.0 h, 2 steps

COC(=O)[C@@H](OC(C)(C)C)c1c(C)c(C)c2nc3c(C)n2c1N1CCC(C)(CC1)OCCOC[C@H](C)Oc1cc(F)c(F)cc1-c1cccc-3c1
ring closure, isolated yield [1, 3]: 30% | ring closure, yield of all isomers [2, 3]: 30%

COC(=O)[C@@H](OC(C)(C)C)c1c(C)c(C)c2nc3cn2c1N1CCC(C)(CC1)OCCOC[C@H](C)Oc1cc(C)cc(F)c1-c1cccc-3c1
ring closure, isolated yield [1, 4]: 81% | ring closure, yield of all isomers [2, 4]: 81%

COC(=O)[C@@H](OC(C)(C)C)c1c(C)c(C)c2nc3cn2c1N1CCC(C)(CC1)OCCOC[C@H](C)Oc1cc(C)ccc1-c1cccc-3c1
ring closure, isolated yield [1, 5]: 47% | ring closure, yield of all isomers [2, 5]: 47%

COC(=O)[C@@H](OC(C)(C)C)c1c(C)c(C)c2nc3cn2c1N1CCC(C)(CC1)OCCOC[C@H](C)Oc1ccc(C)cc1-c1cccc-3c1
ring closure, isolated yield [1, 6]: 60% | ring closure, yield of all isomers [2, 6]: 60%

COC(=O)[C@@H](OC(C)(C)C)c1c(C)c(C)c2nc3cn2c1N1CCC(C)(CC1)OCCOC[C@H](C)Oc1ccc(F)cc1-c1cccc-3c1
ring closure, isolated yield [1, 7]: 59% | ring closure, yield of all isomers [2, 7]: 59%

COC(=O)[C@@H](OC(C)(C)C)c1c(C)cc2nc3cn2c1N1CCC(C)(CC1)OCCOC[C@H](C)Oc1cc(C)cc(F)c1-c1cccc-3c1
ring closure, isolated yield [1, 8]: 6% | ring closure, yield of all isomers [2, 8]: 6%

COC(=O)[C@@H](OC(C)(C)C)c1c(C)cc2nc3cn2c1N1CCC(C)(CC1)OCCOC[C@H](C)Oc1ccc(C)cc1-c1cccc-3c1
ring closure, isolated yield [1, 9]: 65% | ring closure, yield of all isomers [2, 9]: 65%

Cc1ccc2c(c1)O[C@@H](C)COCCOC1(C)CCN(CC1)c1c([C@H](OC(C)(C)C)C(=O)O)c(C)cc3nc(cn13)-c1cccc-2c1 [Example 22, (2S)-2-(tert-Butoxy)-2-[(22S)-4,18,22,28-tetramethyl-21,24,27-trioxa-1,7,34-triazahexacyclo[26.2.2.1^6,^9.1^1^0,^1^4.0^2,^7.0^1^5,^2^0]tetratriaconta-2,4,6(34),8,10(33),11,13,15(20),16,18-decaen-3-yl]acetic Acid]
EC50 (NL-RLuc virus; read-out: Activity): < 0.1 µM

Cc1ccc2c(c1)O[C@@H](C)COCCOC1(C)CCN(CC1)c1c([C@H](OC(C)(C)C)C(=O)O)c(C)c(C)c3nc(cn13)-c1cccc-2c1 [Example 23, (2S)-2-(tert-Butoxy)-2-((6S,Z)-14,27,28,44,6-pentamethyl-5,8,11-trioxa-2(5,2)-imidazo[1,2-a]pyridina-1(1,4)-piperidina-3(1,3),4(1,2)-dibenzenacycloundecaphane-26-yl)acetic Acid]
EC50 (NL-RLuc virus; read-out: Activity): < 0.1 µM

Cc1ccc2c(c1)O[C@@H](C)COCCOC1(C)CCN(CC1)c1c([C@H](OC(C)(C)C)C(=O)O)c(C)c(C)c3nc(c(Cl)n13)-c1cccc-2c1 [Example 24, (2S)-2-(tert-Butoxy)-2-((6S,E)-23-chloro-14,27,28,44,6-pentamethyl-5,8,11-trioxa-2(5,2)-imidazo[1,2-a]pyridina-1(1,4)-piperidina-3(1,3),4(1,2)-dibenzenacycloundecaphane-26-yl)acetic Acid]
EC50 (NL-RLuc virus; read-out: Activity): < 0.1 µM

Cc1ccc2c(c1)-c1cccc(c1)-c1cn3c(c([C@H](OC(C)(C)C)C(=O)O)c(C)cc3n1)N1CCC(C)(CC1)OCCOC[C@H](C)O2 [Example 25, (2S)-2-(tert-Butoxy)-2-[(22S)-4,17,22,28-tetramethyl-21,24,27-trioxa-1,7,34-triazahexacyclo[26.2.2.1^6,^9.1^1^0,^1^4.0^2,^7.0^1^5,^2^0]tetratriaconta-2,4,6(34),8,10(33),11,13,15(20),16,18-decaen-3-yl]acetic acid]
EC50 (NL-RLuc virus; read-out: Activity): < 0.1 µM | EC50 (NL-RLuc virus; read-out: EC50 μM): 0.002 µM

Cc1ccc2c(c1)-c1cccc(c1)-c1cn3c(c([C@H](OC(C)(C)C)C(=O)O)c(C)c(C)c3n1)N1CCC(C)(CC1)OCCOC[C@H](C)O2 [Example 26, (2S)-2-(tert-Butoxy)-2-[(22S)-4,5,17,22,28-pentamethyl-21,24,27-trioxa-1,7,34-triazahexacyclo[26.2.2.1^6,^9.1^1^0,^1^4.0^2,^7.0^1^5,^2^0]tetratriaconta-2,4,6(34),8,10(33),11,13,15(20),16,18-decaen-3-yl]acetic Acid]
EC50 (NL-RLuc virus; read-out: Activity): < 0.1 µM

Cc1ccc2c(c1)-c1cccc(c1)-c1nc3c(C)c(C)c([C@H](OC(C)(C)C)C(=O)O)c(n3c1Cl)N1CCC(C)(CC1)OCCOC[C@H](C)O2 [Example 27, (2S)-2-(tert-Butoxy)-2-[(22S)-8-chloro-4,5,17,22,28-pentamethyl-21,24,27-trioxa-1,7,34-triazahexacyclo[26.2.2.1^6,^9.1^1^0,^1^4.0^2,^7.0^1^5,^2^0]tetratriaconta-2,4,6(34),8,10(33),11,13,15(20),16,18-decaen-3-yl]acetic Acid]
EC50 (NL-RLuc virus; read-out: Activity): < 0.1 µM

Cc1c([C@H](OC(C)(C)C)C(=O)O)c2n3cc(nc3c1C)-c1cccc(c1)-c1cc(F)ccc1O[C@@H](C)COCCOC1(C)CCN2CC1 [Example 28, (2S)-2-(tert-Butoxy)-2-((6S,Z)-45-fluoro-14,27,28,6-tetramethyl-5,8,11-trioxa-2(5,2)-imidazo[1,2-a]pyridina-1(1,4)-piperidina-3(1,3),4(1,2)-dibenzenacycloundecaphane-26-yl)acetic Acid]
EC50 (NL-RLuc virus; read-out: Activity): < 0.1 µM

Cc1c([C@H](OC(C)(C)C)C(=O)O)c2n3c(Cl)c(nc3c1C)-c1cccc(c1)-c1cc(F)ccc1O[C@@H](C)COCCOC1(C)CCN2CC1 [Example 29, (2S)-2-(tert-butoxy)-2-((6S,E)-23-chloro-45-fluoro-14,27,28,6-tetramethyl-5,8,11-trioxa-2(5,2)-imidazo[1,2-a]pyridina-1(1,4)-piperidina-3(1,3),4(1,2)-dibenzenacycloundecaphane-26-yl)acetic Acid]
EC50 (NL-RLuc virus; read-out: Activity): < 0.1 µM | EC50 (NL-RLuc virus; read-out: EC50 μM): 0.001 µM
